Data taken from ChEMBL document CHEMBL4311969, “Polygala tenuifolia-Acori tatarinowii herbal pair as an inspiration for substituted cinnamic α-asaronol esters: Design, synthesis, anticonvulsant activity, and inhibition of lactate dehydrogenase study” (Eur J Med Chem, 2019).
Active and inactive are the calls of the source. No cut-off for these calls is given here.

What was measured:
Mus musculus [1] = assay: Anticonvulsant activity in Kunming mouse assessed as MES-induced hind limb extension at 100 mg/kg, ip administered 0. 5 to 2 hrs before MES stimulation; assay type: functional, organism-based
Mus musculus [2] = assay: Anticonvulsant activity in Kunming mouse assessed as MES-induced hind limb extension at 100 mg/kg, ip administered 3 hrs before MES stimulation; assay type: functional, organism-based
[3] = Neurotoxicity against Kunming mouse assessed as time remained in rod at 100 mg/kg, ip administered 0.5 to 2 hrs by rotarod test; assay type: toxicity, organism-based; conditions: in vivo
Homo sapiens [4] = species: Homo sapiens; assay: Inhibition of human LDH1 at 0.5 mM using sodium pyruvate as substrate by UV-VIS spectrophotometry method relative to control
Homo sapiens [5] = species: Homo sapiens; assay: Inhibition of human LDH5 at 0.5 mM using sodium pyruvate as substrate by UV-VIS spectrophotometry method relative to control
Mus musculus [6] = assay: Anticonvulsant activity in Kunming mouse assessed as MES-induced hind limb extension at 100 mg/kg, ip administered 0. 5 to 4 hrs before MES stimulation relative to control; assay type: functional
[7] = Drug metabolism in Sprague-Dawley rat assessed as retention time by HPLC/MS analysis; assay type: ADME

SMILES | inhibition (Homo sapiens [4]) | inhibition (Homo sapiens [5]) | Retention_time [7] [min] | Activity (Mus musculus [1]) | Activity (Mus musculus [2]) | Activity [3] | Activity (Mus musculus [6])
COc1cc(OC)c(OC)cc1/C=C/COC(=O)/C=C/c1cccc(OC)c1OC | inactive | inactive |  | Active | Active | Non-Toxic | 25 - 100%
COc1cc(OC)c(OC)cc1/C=C/COC(=O)/C=C/c1ccccc1Br | < 5% | < 9% |  | Active |  | Non-Toxic | inactive
COc1cc(/C=C/C(=O)O)cc(OC)c1OC [SINAPIC ACID METHYL ETHER] |  |  |  | Active |  | Non-Toxic | 
COc1cc(OC)c(OC)cc1/C=C/COC(=O)/C=C/c1c(OC)c(OC)c(OC)c(OC)c1OC | inactive | inactive |  | Active |  | Non-Toxic | inactive
COc1cc(OC)c(OC)cc1/C=C/COC(=O)/C=C/c1ccccc1F | < 5% | < 9% |  | Active |  | Non-Toxic | inactive
COc1cc(OC)c(OC)cc1/C=C/COC(=O)/C=C/c1cccc(C(F)(F)F)c1 | < 5% | < 9% |  | Active |  | Non-Toxic | inactive

More lines, main results first:

inhibition (Homo sapiens [4]) | inhibition (Homo sapiens [5]) | Retention_time [7] [min] | SMILES | Activity (Mus musculus [1]) | Activity (Mus musculus [2]) | Activity [3] | Activity (Mus musculus [6])
< 5% | < 9% |  | COc1cc(OC)c(OC)cc1/C=C/COC(=O)/C=C/c1cccc(F)c1 | Active | Active | Non-Toxic | 25 - 100%
< 5% | 9% |  | COc1cc(OC)c(OC)cc1/C=C/CNC(=O)/C=C/c1cc(OC)c(OC)c(OC)c1 | Active |  | Non-Toxic | 25 - 100%
 |  | 81.4 | COc1cc(OC)c(OC)c(OC)c1/C=C/C(=O)O |  |  |  | 
< 5% | 9% |  | COc1cc(OC)c(OC)cc1CCCNC(=O)/C=C/c1cc(OC)c(OC)c(OC)c1 | Active |  | Non-Toxic | 25 - 100%
 |  | 79.8 | COc1cc(OC)c(OC)cc1/C=C/C(=O)O |  |  |  | 
 |  | 78.7 | COc1cc(OC)c(OC)cc1/C=C\C(=O)O |  |  |  | 
